# Laboratory results published in PMC12227661, “Shedding Light on the Phytochemical and Biological Fingerprints of Fibigia clypeata (L.) Medik Essential Oil as a Pharmacotherapeutic Agent” (Food Science & Nutrition, 2025).
# Experiments:
# [1] = DPPH free radical scavenging activity assay
# Description: The DPPH radical scavenging activity assay has been performed according to the method of Blois et al. with minor modifications (Blois [1958]). Butylated Hydroxy Toluene (BHT), Butylated Hydroxy Anisole (BHA), and α‐TOC (Tocopherol) were also assayed as standards for comparison.
# [2] = ABTS cation radical decolorization activity; settings: footnote a: given as IC50
# From the text: The procedure was followed from the literature (Miller et al. [1993]) and the measurements at 734 nm were read for each concentration relative to a blank absorbance (DMSO). BHA, BHT, and ‐TOC were used as standards. The obtained values were compared to the standards.
# [3] = CUPRAC cupric ion‐reducing antioxidant capacity; settings: absorbance 450 nm after 30 min
# Description: The antioxidant capacity assay to identify the reductive efficiencies of the essential oil for Cu metal was performed according to the method reported in the literature (Apak et al. [2005]). The absorbances were measured at 450 nm after 30 min. BHA, BHT, and α‐TOC were used as standards.
# four yeast strains = test system: four yeast strains; parameters: method as in Kyung and Fleming [1997]; settings: ref Kyung and Fleming [1997]; cited from earlier work
# [4] = test system: various bacterial strains; parameters: method as in Kyung and Fleming [1997]; settings: ref Kyung and Fleming [1997]; cited from earlier work
# [5] = target: T1, Acetylcholinesterase (AChE) (Electrophorus electricus, UniProt O42275); parameters: method as in Ryan and Bryan [1988]; settings: ref Ryan and Bryan [1988]; cited from earlier work
# T1 construct: purchased Sigma C3389
# T1 sequence (O42275 24-633): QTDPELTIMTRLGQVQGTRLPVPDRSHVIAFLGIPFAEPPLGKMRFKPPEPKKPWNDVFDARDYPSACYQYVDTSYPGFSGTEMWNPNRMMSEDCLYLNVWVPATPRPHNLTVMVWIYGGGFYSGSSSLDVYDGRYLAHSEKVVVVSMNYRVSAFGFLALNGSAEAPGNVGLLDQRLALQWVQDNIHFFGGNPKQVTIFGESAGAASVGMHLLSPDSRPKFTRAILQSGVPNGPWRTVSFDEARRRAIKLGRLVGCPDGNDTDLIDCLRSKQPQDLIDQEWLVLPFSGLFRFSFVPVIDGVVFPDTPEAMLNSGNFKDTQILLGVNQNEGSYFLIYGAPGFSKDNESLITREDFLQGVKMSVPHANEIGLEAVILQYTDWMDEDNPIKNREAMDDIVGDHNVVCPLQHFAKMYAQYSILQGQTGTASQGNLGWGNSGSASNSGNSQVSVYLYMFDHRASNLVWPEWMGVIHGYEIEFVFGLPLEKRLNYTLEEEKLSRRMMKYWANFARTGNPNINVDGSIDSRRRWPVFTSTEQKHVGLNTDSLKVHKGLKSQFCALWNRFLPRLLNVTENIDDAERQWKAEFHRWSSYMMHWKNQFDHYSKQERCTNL
Compound,IC50 values DPPH free radical [1],A 0.5 values ABTS cation radical [2],A 0.5 values CUPRAC [3],MIC (four yeast strains),MIC [4],AChE inhibition [5]
"Cc1cc(C(C)(C)C)c(O)c(C(C)(C)C)c1 [BHT, Butylated Hydroxy Toluene]",16.71 ± 0.80 µg/mL,4.44 ± 0.30 µg/mL,3.93 ± 0.24 µg/mL,–,–,–
"CSSSC [Compound 2, Dimethyl trisulfide]",–,–,–,20 ppm,200 ppm,–
"C=CC(C)(O)CCC=C(C)C (stereo not drawn) [Compound 6, Linalool]",–,–,–,–,–,no significant inhibition
"COc1ccc(O)c(C(C)(C)C)c1 [BHA, Butylated Hydroxy Anisole]",3.22 ± 0.08 µg/mL,2.74 ± 0.03 µg/mL,4.14 ± 0.17 µg/mL,–,–,–
"Cc1c(C)c2c(c(C)c1O)CC[C@@](C)(CCC[C@H](C)CCC[C@H](C)CCCC(C)C)O2 [α‐TOC, Tocopherol]",1.41 ± 0.04 µg/mL,8.48 ± 0.43 µg/mL,13.64 ± 0.32 µg/mL,–,–,–
